In patent US12441703B2, “Carboxamides as modulators of sodium channels” (VERTEX PHARMACEUTICALS INCORPORATED, priority 2019, dated 2025):

These molecules were tested against human NaV 1.8 (Homo sapiens, UniProt Q9Y5Y9) (assay: E-VIPR assay for detecting and measuring NaV inhibition properties). Settings: E-VIPR assay conducted in the presence of human serum; HEK cells expressing truncated human NaV 1.8.
Format: cell-based
Procedure, shortened: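 HEK cells with truncated human NaV1.8 plus KIR2.1 BacMam, hexyl dye loaded 20 min, compound 30 min at room temperature, 11-point 3-fold series […], 0.625% DMSO, with or without human serum. E-VIPR biphasic stimulation at 10 Hz for 10 s; membrane-potential response read as normalized coumarin/oxonol ratio.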

Chain of human NaV 1.8 (Q9Y5Y9 whole entry, looked up, the tested form may be a part): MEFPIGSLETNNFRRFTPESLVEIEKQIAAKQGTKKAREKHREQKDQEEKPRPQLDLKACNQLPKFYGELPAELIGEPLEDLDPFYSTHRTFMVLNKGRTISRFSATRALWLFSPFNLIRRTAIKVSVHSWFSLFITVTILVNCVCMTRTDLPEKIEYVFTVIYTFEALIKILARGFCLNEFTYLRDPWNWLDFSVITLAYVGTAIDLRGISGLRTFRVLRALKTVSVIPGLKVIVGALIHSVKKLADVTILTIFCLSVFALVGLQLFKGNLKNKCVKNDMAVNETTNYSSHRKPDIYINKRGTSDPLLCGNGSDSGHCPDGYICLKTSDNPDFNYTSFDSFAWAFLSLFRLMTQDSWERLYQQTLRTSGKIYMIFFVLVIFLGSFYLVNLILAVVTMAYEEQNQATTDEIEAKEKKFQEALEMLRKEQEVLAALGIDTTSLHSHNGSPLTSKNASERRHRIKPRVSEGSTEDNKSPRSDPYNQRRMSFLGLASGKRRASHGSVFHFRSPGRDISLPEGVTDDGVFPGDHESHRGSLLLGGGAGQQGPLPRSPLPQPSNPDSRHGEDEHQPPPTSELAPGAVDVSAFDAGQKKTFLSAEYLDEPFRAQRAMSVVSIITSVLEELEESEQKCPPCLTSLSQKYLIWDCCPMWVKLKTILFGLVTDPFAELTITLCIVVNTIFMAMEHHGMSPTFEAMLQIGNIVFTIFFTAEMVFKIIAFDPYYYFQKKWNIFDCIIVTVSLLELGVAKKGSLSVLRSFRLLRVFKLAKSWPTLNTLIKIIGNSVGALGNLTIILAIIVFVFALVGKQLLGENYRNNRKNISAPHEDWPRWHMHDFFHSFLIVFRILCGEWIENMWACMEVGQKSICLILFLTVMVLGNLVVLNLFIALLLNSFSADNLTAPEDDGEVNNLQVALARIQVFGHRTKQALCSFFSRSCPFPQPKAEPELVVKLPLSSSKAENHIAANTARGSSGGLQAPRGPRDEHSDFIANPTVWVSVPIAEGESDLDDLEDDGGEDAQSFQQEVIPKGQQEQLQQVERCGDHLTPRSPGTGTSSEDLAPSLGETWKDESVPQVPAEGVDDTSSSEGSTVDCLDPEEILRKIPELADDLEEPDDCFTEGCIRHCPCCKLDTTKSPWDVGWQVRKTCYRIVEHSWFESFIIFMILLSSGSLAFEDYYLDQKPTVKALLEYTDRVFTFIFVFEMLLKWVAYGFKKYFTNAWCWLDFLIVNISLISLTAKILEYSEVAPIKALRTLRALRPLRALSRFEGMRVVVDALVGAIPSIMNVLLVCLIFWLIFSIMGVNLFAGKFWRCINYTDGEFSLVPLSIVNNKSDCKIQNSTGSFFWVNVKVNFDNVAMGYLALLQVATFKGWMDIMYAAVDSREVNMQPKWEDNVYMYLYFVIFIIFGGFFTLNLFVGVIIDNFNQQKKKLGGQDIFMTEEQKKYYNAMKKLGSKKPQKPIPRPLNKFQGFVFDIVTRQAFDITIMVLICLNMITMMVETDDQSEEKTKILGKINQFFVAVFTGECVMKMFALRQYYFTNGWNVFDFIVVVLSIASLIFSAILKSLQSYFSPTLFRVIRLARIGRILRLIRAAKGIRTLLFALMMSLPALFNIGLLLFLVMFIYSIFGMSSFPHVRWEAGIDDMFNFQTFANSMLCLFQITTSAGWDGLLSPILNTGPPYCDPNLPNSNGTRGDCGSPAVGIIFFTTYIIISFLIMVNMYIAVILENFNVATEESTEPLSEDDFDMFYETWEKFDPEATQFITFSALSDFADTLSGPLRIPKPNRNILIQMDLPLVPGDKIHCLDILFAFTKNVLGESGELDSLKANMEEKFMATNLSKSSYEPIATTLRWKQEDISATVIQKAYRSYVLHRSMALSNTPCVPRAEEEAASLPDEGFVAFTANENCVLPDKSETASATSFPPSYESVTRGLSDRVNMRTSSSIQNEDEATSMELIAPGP

Compound | IC50
Cc1c(Oc2ccc(C(F)(F)F)c(C)c2C(=O)Nc2ccc(C(N)=O)nc2)ccc(OC(F)(F)F)c1F [Compound 289, 5-[[6-[3-Fluoro-2-Methyl-4-(Trifluoromethoxy)Phenoxy]-2-Methyl-3-(Trifluoromethyl)Benzoyl]Amino]Pyridine-2-Carboxamide] | 39 nM

Same assay, conditions: E-VIPR assay conducted in the presence of human serum; HEK cells expressing truncated human NaV 1.8; read-out: IC50

IC50 | Compound
9.9 nM | Cc1c(Oc2ccc(C(F)(F)F)c(C)c2C(=O)Nc2ccnc(C(N)=O)c2)ccc(OC(F)(F)F)c1F [Compound 290, 4-[[6-[3-Fluoro-2-Methyl-4-(Trifluoromethoxy)Phenoxy]-2-Methyl-3-(Trifluoromethyl)Benzoyl]Amino]Pyridine-2-Carboxamide]
12.8 nM | Cc1cnc(C(N)=O)cc1NC(=O)c1c(Oc2ccc(OC(F)(F)F)c(F)c2C)ccc(C(F)(F)F)c1F [Compound 291, 4-[[2-Fluoro-6-[3-Fluoro-2-Methyl-4-(Trifluoromethoxy)Phenoxy]-3-(Trifluoromethyl)Benzoyl]Amino]-5-Methyl-Pyridine-2-Carboxamide]
54.5 nM | Cc1c(Oc2ccc(C(F)(F)F)c(F)c2C(=O)Nc2ccc(C(N)=O)nc2)ccc(OC(F)(F)F)c1F [Compound 292, 5-[[2-Fluoro-6-[3-Fluoro-2-Methyl-4-(Trifluoromethoxy)Phenoxy]-3-(Trifluoromethyl)Benzoyl]Amino]Pyridine-2-Carboxamide]
3.9 nM | Cc1c(Oc2ccc(C(F)(F)F)c(F)c2C(=O)Nc2ccnc(C(N)=O)c2)ccc(OC(F)(F)F)c1F [Compound 293, 4-[[2-Fluoro-6-[3-Fluoro-2-Methyl-4-(Trifluoromethoxy)Phenoxy]-3-(Trifluoromethyl)Benzoyl]Amino]Pyridine-2-Carboxamide]
6.8 nM | Cc1c(Oc2ccc(OC(F)(F)F)c(F)c2C(=O)Nc2ccnc(C(N)=O)c2)ccc(OC(F)(F)F)c1F [Compound 294, 4-[[2-Fluoro-6-[3-Fluoro-2-Methyl-4-(Trifluoromethoxy)Phenoxy]-3-(Trifluoromethoxy)Benzoyl]Amino]Pyridine-2-Carboxamide]
6.5 nM | Cc1c(Oc2ccc(Cl)c(F)c2C(=O)Nc2ccnc(C(N)=O)c2)ccc(OC(F)(F)F)c1F [Compound 295, 4-[[3-Chloro-2-Fluoro-6-[3-Fluoro-2-Methyl-4-(Trifluoromethoxy)Phenoxy]Benzoyl]Amino]Pyridine-2-Carboxamide]
24.6 nM | Cc1cnc(C(N)=O)cc1NC(=O)c1c(Oc2ccc(OC(F)(F)F)c(F)c2Cl)ccc(C(F)(F)F)c1F [Compound 296, 4-[[6-[2-Chloro-3-Fluoro-4-(Trifluoromethoxy)Phenoxy]-2-Fluoro-3-(Trifluoromethyl)Benzoyl]Amino]-5-Methyl-Pyridine-2-Carboxamide]
74 nM | NC(=O)c1ccc(NC(=O)c2c(Oc3ccc(OC(F)(F)F)c(F)c3Cl)ccc(C(F)(F)F)c2F)cn1 [Compound 297, 5-[[6-[2-Chloro-3-Fluoro-4-(Trifluoromethoxy)Phenoxy]-2-Fluoro-3-(Trifluoromethyl)Benzoyl]Amino]Pyridine-2-Carboxamide]
9.8 nM | NC(=O)c1cc(NC(=O)c2c(Oc3ccc(OC(F)(F)F)c(F)c3Cl)ccc(C(F)(F)F)c2F)ccn1 [Compound 298, 4-[[6-[2-Chloro-3-Fluoro-4-(Trifluoromethoxy)Phenoxy]-2-Fluoro-3-(Trifluoromethyl)Benzoyl]Amino]Pyridine-2-Carboxamide]
6.4 nM | COc1cc(Oc2ccc(F)c(F)c2OC)c(C(=O)Nc2ccnc(C(N)=O)c2)c(F)c1C(F)(F)F [Compound 299, 4-[[6-(3,4-Difluoro-2-Methoxy-Phenoxy)-2-Fluoro-4-Methoxy-3-(Trifluoromethyl)Benzoyl]Amino]Pyridine-2-Carboxamide]
1400 nM | CNC(=O)c1cc(NC(=O)c2c(Oc3ccc(F)c(F)c3OC)cc(OC)c(C(F)(F)F)c2NC)ccn1 [Compound 300, 4-[[6-(3,4-Difluoro-2-Methoxy-Phenoxy)-4-Methoxy-2-(Methylamino)-3-(Trifluoromethyl)Benzoyl]Amino]-N-Methyl-Pyridine-2-Carboxamide]
22 nM | CNC(=O)c1cc(NC(=O)c2c(Oc3ccc(F)c(F)c3OC)cc(OC)c(C(F)(F)F)c2F)ccn1 [Compound 301, 4-[[6-(3,4-Difluoro-2-Methoxy-Phenoxy)-2-Fluoro-4-Methoxy-3-(Trifluoromethyl)Benzoyl]Amino]-N-Methyl-Pyridine-2-Carboxamide]
280 nM | COc1c(Oc2cnc(C(F)(F)F)c(OC)c2C(=O)Nc2cc(C(N)=O)ncc2C)ccc(F)c1F [Compound 302, N-(2-carbamoyl-5-methyl-4-pyridyl)-5-(3,4-difluoro-2-methoxy-phenoxy)-3-methoxy-2-(trifluoromethyl)pyridine-4-carboxamide]
19 nM | COc1c(Oc2ccc(F)c(F)c2C(=O)Nc2ccnc(C(N)=O)c2)ccc(OC(F)(F)F)c1F [Compound 303, 4-[[2,3-difluoro-6-[3-fluoro-2-methoxy-4-(trifluoromethoxy)phenoxy]benzoyl]amino]pyridine-2-carboxamide]
54 nM | COc1c(Oc2ccc(F)c(F)c2C(=O)Nc2cc(C(N)=O)ncc2C)ccc(OC(F)(F)F)c1F [Compound 304, 4-[[2,3-difluoro-6-[3-fluoro-2-methoxy-4-(trifluoromethoxy)phenoxy]benzoyl]amino]-5-methyl-pyridine-2-carboxamide]
2.3 nM | COc1c(Oc2ccc(Cl)c(F)c2C(=O)Nc2ccnc(C(N)=O)c2)ccc(OC(F)(F)F)c1F [Compound 305, 4-[[3-chloro-2-fluoro-6-[3-fluoro-2-methoxy-4-(trifluoromethoxy)phenoxy]benzoyl]amino]pyridine-2-carboxamide]
19 nM | COc1c(Oc2ccc(Cl)c(F)c2C(=O)Nc2ccc(C(N)=O)nc2)ccc(OC(F)(F)F)c1F [Compound 306, 5-[[3-chloro-2-fluoro-6-[3-fluoro-2-methoxy-4-(trifluoromethoxy)phenoxy]benzoyl]amino]pyridine-2-carboxamide]
5.9 nM | COc1c(Oc2cc(F)c(F)c(F)c2C(=O)Nc2ccnc(C(N)=O)c2)ccc(OC(F)(F)F)c1F [Compound 307, 4-[[2,3,4-trifluoro-6-[3-fluoro-2-methoxy-4-(trifluoromethoxy)phenoxy]benzoyl]amino]pyridine-2-carboxamide]
36 nM | COc1c(Oc2cc(F)c(F)c(F)c2C(=O)Nc2cnc(C(N)=O)nc2)ccc(OC(F)(F)F)c1F [Compound 308, 5-[[2,3,4-trifluoro-6-[3-fluoro-2-methoxy-4-(trifluoromethoxy)phenoxy]benzoyl]amino]pyrimidine-2-carboxamide]
1.4 nM | COc1c(Oc2cc(Cl)c(C)c(F)c2C(=O)Nc2ccnc(C(N)=O)c2)ccc(OC(F)(F)F)c1F [Compound 309, 4-[[4-chloro-2-fluoro-6-[3-fluoro-2-methoxy-4-(trifluoromethoxy)phenoxy]-3-methyl-benzoyl]amino]pyridine-2-carboxamide]
2.5 nM | COc1c(Oc2ccc(C3CCC3)c(F)c2C(=O)Nc2ccnc(C(N)=O)c2)ccc(OC(F)(F)F)c1F [Compound 310, 4-[[3-cyclobutyl-2-fluoro-6-[3-fluoro-2-methoxy-4-(trifluoromethoxy)phenoxy]benzoyl]amino]pyridine-2-carboxamide]
13 nM | COc1c(Oc2cc3c(cc2C(=O)Nc2ccnc(C(N)=O)c2)OC(F)(F)O3)ccc(OC(F)(F)F)c1F [Compound 311, 4-[[2,2-difluoro-6-[3-fluoro-2-methoxy-4-(trifluoromethoxy)phenoxy]-1,3-benzodioxole-5-carbonyl]amino]pyridine-2-carboxamide]
7.9 nM | COc1c(Oc2ccc(C(F)(F)F)c(C)c2C(=O)Nc2cc(C(N)=O)ncc2C)ccc(OC(F)(F)F)c1F [Compound 312, 4-[[6-[3-fluoro-2-methoxy-4-(trifluoromethoxy)phenoxy]-2-methyl-3-(trifluoromethyl)benzoyl]amino]-5-methyl-pyridine-2-carboxamide]
121 nM | COc1c(Oc2ccc(C(F)(F)F)c(C)c2C(=O)Nc2cc(C(N)=O)ccn2)ccc(OC(F)(F)F)c1F [Compound 313, 2-[[6-[3-fluoro-2-methoxy-4-(trifluoromethoxy)phenoxy]-2-methyl-3-(trifluoromethyl)benzoyl]amino]pyridine-4-carboxamide]
6.5 nM | COc1c(Oc2ccc(C(F)(F)F)c(C)c2C(=O)Nc2cnc(C(N)=O)nc2)ccc(OC(F)(F)F)c1F [Compound 314, 5-[[6-[3-fluoro-2-methoxy-4-(trifluoromethoxy)phenoxy]-2-methyl-3-(trifluoromethyl)benzoyl]amino]pyrimidine-2-carboxamide]
120 nM | COc1c(Oc2ccc(C(F)(F)F)c(C)c2C(=O)Nc2cc(C(N)=O)ncn2)ccc(OC(F)(F)F)c1F [Compound 315, 6-[[6-[3-fluoro-2-methoxy-4-(trifluoromethoxy)phenoxy]-2-methyl-3-(trifluoromethyl)benzoyl]amino]pyrimidine-4-carboxamide]
24 nM | COc1c(Oc2ccc(C(F)(F)F)c(C)c2C(=O)Nc2cnc(C(N)=O)cn2)ccc(OC(F)(F)F)c1F [Compound 316, 5-[[6-[3-fluoro-2-methoxy-4-(trifluoromethoxy)phenoxy]-2-methyl-3-(trifluoromethyl)benzoyl]amino]pyrazine-2-carboxamide]
520 nM | COc1c(Oc2ccc(C(F)(F)F)c(C)c2C(=O)Nc2ccc(C(N)=O)nn2)ccc(OC(F)(F)F)c1F [Compound 317, 6-[[6-[3-fluoro-2-methoxy-4-(trifluoromethoxy)phenoxy]-2-methyl-3-(trifluoromethyl)benzoyl]amino]pyridazine-3-carboxamide]
15.1 nM | COc1c(Oc2cc(C(F)(F)F)cc(F)c2C(=O)Nc2cc(C(N)=O)ncc2C)ccc(OC(F)(F)F)c1F [Compound 318, 4-[[2-fluoro-6-[3-fluoro-2-methoxy-4-(trifluoromethoxy)phenoxy]-4-(trifluoromethyl)benzoyl]amino]-5-methyl-pyridine-2-carboxamide]
